Test results published in patent US8853156B2, “Treatment for diabetes in patients inappropriate for metformin therapy” (Boehringer Ingelheim International GmbH, priority 2008, dated 2014).

Columns and labels:
[1] = male, human, in vivo, po
[2] = Pharmacokinetics of multiple oral doses once daily for 12 days in patients with type 2 diabetes

excreted unchanged in urine and feces [1]: 90 % of excreted radioactivity
parent compound share of sample radioactivity in plasma [1]: 74 % of sample radioactivity
main excretion organ ([2]; therapeutic oral dose levels): mainly excreted via the liver
SMILES: CC#CCn1c(N2CCC[C@@H](N)C2)nc2c1c(=O)n(Cc1nc(C)c3ccccc3n1)c(=O)n2C [BI 1356]
excretion route and form ([2]; human, in vivo): primarily excreted unchanged via the bile
